Values of other authors as cited in US11667640B2, “Mitoketoscins: mitochondrial-based therapeutics targeting ketone metabolism in cancer cells” (LUNELLA BIOTECH, INC., priority 2017, dated 2023).

Biological target: T1, ACAT1 (Homo sapiens, UniProt P24752)
T1 sequence (P24752 34-427): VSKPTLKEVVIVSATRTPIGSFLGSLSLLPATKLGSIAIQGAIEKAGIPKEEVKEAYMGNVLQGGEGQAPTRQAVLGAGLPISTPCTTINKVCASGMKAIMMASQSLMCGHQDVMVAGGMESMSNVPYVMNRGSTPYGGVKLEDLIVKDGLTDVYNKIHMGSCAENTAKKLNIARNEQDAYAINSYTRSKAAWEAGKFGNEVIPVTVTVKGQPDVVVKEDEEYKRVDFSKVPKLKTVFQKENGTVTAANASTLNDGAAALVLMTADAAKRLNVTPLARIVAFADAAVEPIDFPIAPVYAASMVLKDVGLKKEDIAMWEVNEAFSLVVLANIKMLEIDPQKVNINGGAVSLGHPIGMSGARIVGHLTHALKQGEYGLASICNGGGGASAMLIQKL
Conditions: Garcia-Bermudez et al, Mol Cell 2016

COC(=O)C1=CCCN(C)C1 [Arecoline]
ACAT1 inhibition: potential ACAT1 inhibitor
